Patent publication US20080161338A1, “Novel Pyrrolodihydroisoquinolines as Pde 10 Inhibitors” (ALTANA PHARMA AG, priority 2005, published 2008)

Row | melting point [°C] | Compound
1 | 218 to 221 | COc1cc2c(cc1OC)-c1c(-c3nc(C)no3)c(-c3cc(C)c(O)c(C)c3)c(C)n1CC2 [Example 5, 4-[8,9-Dimethoxy-3-methyl-1-(3-methyl-[1,2,4]oxadiazol-5-yl)-5,6-dihydro-pyrrolo[2,1-a]isoquinolin-2-yl]-2,6-dimethyl-phenol]
2 | 222 to 224 | COc1cc2c(cc1OC)-c1c(-c3ncc(C)o3)c(-c3cc(C)c(O)c(C)c3)c(C)n1CC2 [Example 6, 4-[8,9-Dimethoxy-3-methyl-1-(5-methyl-oxazol-2-yl)-5,6-dihydro-pyrrolo[2,1-a]isoquinolin-2-yl]-2,6-dimethyl-phenol]
3 | 191 to 193 | COc1cc2c(cc1OC)-c1c(-c3nc(-c4ccccc4)no3)c(-c3cc(C)c(O)c(C)c3)c(C)n1CC2 [Example 4, 4-[8,9-Dimethoxy-3-methyl-1-(3-phenyl-[1,2,4]oxadiazol-5-yl)-5,6-dihydro-pyrrolo[2,1-a]isoquinolin-2-yl]-2,6-dimethyl-phenol]

More lines, now with the values behind:

Row | Compound | melting point [°C]
4 | COc1cc2c(cc1OC)-c1c(-c3nc(C4CC4)no3)c(-c3cc(C)c(O)c(C)c3)c(C)n1C(C)C2 (stereo not drawn) [Example 2, (5RS)-4-[1-(3-Cyclopropyl-[1,2,4]oxadiazol-5-yl)-8,9-dmethoxy-3,5-dimethyl-5,6-dihydro-pyrrolo[2,1-a]isoquinolin-2-yl]-2,6-dimethyl-phenol] | 174 to 175
5 | COc1cc2c(cc1OC)-c1c(-c3nc(-c4ccccc4)no3)c(-c3cc(C)c(O)c(C)c3)c(C)n1C(C)C2 (racemic) [Example 3, (5RS)-4-[8,9-Dimethoxy-3,5-dimethyl-1-(3-phenyl-[1,2,4]oxadiazol-5-yl)-5,6-dihydro-pyrrolo[2,1-a]isoquinolin-2-yl]-2,6-dimethyl-phenol] | 203 to 206
6 | COc1cc2c(cc1OC)-c1c(-c3nc(C)no3)c(-c3cc(C)c(O)c(C)c3)c(C)n1C(C)C2 (racemic) [Example 1, (5RS)-4-[8,9-Dimethoxy-3,5-dimethyl-1-(3-methyl-[1,2,4]oxadiazol-5-yl)-5,6-dihydro-pyrrolo[2,1-a]isoquinolin-2-yl]-2,6-dimethyl-phenol] | 182 to 184
